# Test results published in patent US20120076808A1, “COMBINED ANTIGEN AND DNA VACCINE FOR PREVENTING AND TREATING AUTOIMMUNE DISEASES” (CHINA AGRICULTURAL UNIVERSITY, priority 2010, published 2012).
# Key:
# JAWS II cells = assay: Endocytosis inhibitor pre-treatment of JAWS II cells fed pOVA323+OVA323, CD40 staining; assay type: cell-based, mouse; settings: pre-treatment before pOVA323+OVA323
# Experimental: FIG. 24. DCs co-take up DNA and protein immunogens via clathrin- and caveolae-mediated endocytosis. A) JAWS II cells were pre-treated with PBS, MDC (50 μM), or filipin (10 μg/ml) for 30 min at 37° C. and then fed Cy5-pOVA323+FITC-OVA323 or Cy5-pVAX+FITC-OVA323 for 24 h. The cells were stained with anti-CD40-PE and analyzed by flow cytometry. Shown is CD40 staining of Cy5/FITC double-positive cells (gated). B) A summary of the experimental results are shown.
# FIG. 30. Effect of amiloride on the expression of CD40 in JAWS II cells. JAWS II cells were pre-treated with amiloride (5 mM) for 10 min at 37° C. and then co-treated with Cy5-pOVA323+FITC-OVA323 or Cy5-pVAX+FITC-OVA323 for 24 h. The cells were stained with anti-CD40-PE and analyzed by flow cytometry.
# The JAWS II mouse DC line was purchased from the American Type Culture Collection (ATCC, Manassas, Va., USA) and maintained in complete growth medium containing minimum essential medium (MEM) alpha with ribonucleosides, deoxyribonucleosides, 4 mM L-glutamine, and 1 mM sodium pyruvate (Invitrogen Inc., Carlsbad, Calif., USA), and supplemented with 20% fetal bovine serum (ATCC) and 5 ng/ml murine recombinant GM-CSF (R&D Systems, Inc., Minneapolis, Minn., USA). The cells were incubated at 37° C. with 5% CO2 and treated with different antigens (10 μg/ml) such as pVAX, pOVA, OVA, pOVA323 and OVA323 for 24 h. […]
# [1] = system: BALB/c mice with OVA-induced inflammatory bronchitis; assay: OVA-induced inflammatory bronchitis, adoptive transfer of DCregs; assay type: in vivo; settings: DCs pretreated with filipin
# Experimental: FIG. 28. Co-immunization-induced DCregs ameliorate inflammatory bronchitis. A) Experimental design: Balb/c mice were injected with 0.1 ml of 1 mg/ml OVA/alum complexes in PBS on days 0 and 7 by i.p. and subsequently challenged with 100 μg OVA intra-tracheally on days 14, 16 and 18 to establish the “model”. Control mice were received with PBS intra-tracheally on days 14, 16 and 18 and designated as the “shame” control. On day 21, 5×10^5 of CD11c+ cells from syngeneic donor mice were transferred into model mice once daily for 3 consecutive days by i.v. (n=3 per group). Prior to the transfer, donor CD11c+ cells purified from spleen of naïve mice were pre-treated with or without filipin and subsequently co-treated with pOVA+OVA or pVAX+OVA for 24 h. On day 14 after the final transfer, serum samples were taken to analyze the levels of IgE or cytokine productions. Sections of lung tissues were made to evaluate disease severity. B) the level of antigen specific IgE was analyzed by ELISA following adoptive transfer of indicated DCs. […] D) Lung sections were examined by H&E staining and recorded under a light microscope at ×100 and ×200 magnification. […]
# Lung or ovary were fixed in 4% paraformaldehyde or Bouin's solution and embedded in paraffin blocks. […] Histopathology of lung or ovary was evaluated under a light microscope. […]
compound,measurement,setting,value
CCCCC[C@@H](O)[C@H]1C(=O)O[C@H](C)[C@@H](O)/C=C/C=C/C=C/C=C/C=C(\C)[C@@H](O)C[C@H](O)C[C@H](O)C[C@H](O)C[C@H](O)C[C@H](O)C[C@@H]1O [filipin],effect on CD40low phenotype / CD40 expression,JAWS II cells,"could prevent the CD40^1′ phenotype, filipin was more effective than MDC"
same,anti-inflammatory effect of pOVA+OVA treated DCs after inhibitor pre-treatment,[1],absent
